Each structure is given as a SMILES string.

The target of this test is PI3K delta (Homo sapiens, UniProt O00329). The experiment in a line: Luciferase-coupled chemiluminescence kinase assay (ATP consumption, KinaseGlo). In kind it is biochemical. The method, boiled down: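 Compound, kinase and ATP (≤ KM) reacted 2 h at ambient temperature, then remaining ATP quantified with luciferase-luciferin (KinaseGlo) luminescence as percent consumed.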
PI3K delta, sequence (O00329 whole entry): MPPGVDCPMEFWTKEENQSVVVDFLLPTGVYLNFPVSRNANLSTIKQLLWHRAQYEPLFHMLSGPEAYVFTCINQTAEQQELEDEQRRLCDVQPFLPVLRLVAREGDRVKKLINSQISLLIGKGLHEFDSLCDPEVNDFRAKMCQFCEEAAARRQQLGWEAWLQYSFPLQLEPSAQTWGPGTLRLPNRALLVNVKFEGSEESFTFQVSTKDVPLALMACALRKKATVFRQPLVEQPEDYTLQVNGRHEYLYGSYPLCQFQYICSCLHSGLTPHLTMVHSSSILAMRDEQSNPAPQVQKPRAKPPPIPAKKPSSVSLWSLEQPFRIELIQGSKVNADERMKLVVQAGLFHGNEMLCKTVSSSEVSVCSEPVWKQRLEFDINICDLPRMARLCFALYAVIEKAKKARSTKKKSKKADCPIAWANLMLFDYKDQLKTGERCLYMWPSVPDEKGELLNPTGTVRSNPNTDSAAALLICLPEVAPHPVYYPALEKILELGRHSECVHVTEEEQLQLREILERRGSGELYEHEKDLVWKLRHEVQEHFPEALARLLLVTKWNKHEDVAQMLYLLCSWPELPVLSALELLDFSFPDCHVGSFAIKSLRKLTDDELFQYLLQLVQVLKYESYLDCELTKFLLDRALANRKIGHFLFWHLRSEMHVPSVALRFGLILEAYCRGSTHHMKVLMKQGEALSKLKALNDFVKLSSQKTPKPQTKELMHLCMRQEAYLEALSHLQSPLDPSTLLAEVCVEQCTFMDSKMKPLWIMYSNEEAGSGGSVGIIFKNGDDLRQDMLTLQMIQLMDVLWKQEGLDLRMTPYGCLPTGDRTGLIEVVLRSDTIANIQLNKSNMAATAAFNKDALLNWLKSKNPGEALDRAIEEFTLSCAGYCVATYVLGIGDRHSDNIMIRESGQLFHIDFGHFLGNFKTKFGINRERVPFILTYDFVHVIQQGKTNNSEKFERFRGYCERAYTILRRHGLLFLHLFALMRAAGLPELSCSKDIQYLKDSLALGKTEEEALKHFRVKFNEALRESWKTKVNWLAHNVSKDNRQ
PI3K delta, sequence (P27986 whole entry partner): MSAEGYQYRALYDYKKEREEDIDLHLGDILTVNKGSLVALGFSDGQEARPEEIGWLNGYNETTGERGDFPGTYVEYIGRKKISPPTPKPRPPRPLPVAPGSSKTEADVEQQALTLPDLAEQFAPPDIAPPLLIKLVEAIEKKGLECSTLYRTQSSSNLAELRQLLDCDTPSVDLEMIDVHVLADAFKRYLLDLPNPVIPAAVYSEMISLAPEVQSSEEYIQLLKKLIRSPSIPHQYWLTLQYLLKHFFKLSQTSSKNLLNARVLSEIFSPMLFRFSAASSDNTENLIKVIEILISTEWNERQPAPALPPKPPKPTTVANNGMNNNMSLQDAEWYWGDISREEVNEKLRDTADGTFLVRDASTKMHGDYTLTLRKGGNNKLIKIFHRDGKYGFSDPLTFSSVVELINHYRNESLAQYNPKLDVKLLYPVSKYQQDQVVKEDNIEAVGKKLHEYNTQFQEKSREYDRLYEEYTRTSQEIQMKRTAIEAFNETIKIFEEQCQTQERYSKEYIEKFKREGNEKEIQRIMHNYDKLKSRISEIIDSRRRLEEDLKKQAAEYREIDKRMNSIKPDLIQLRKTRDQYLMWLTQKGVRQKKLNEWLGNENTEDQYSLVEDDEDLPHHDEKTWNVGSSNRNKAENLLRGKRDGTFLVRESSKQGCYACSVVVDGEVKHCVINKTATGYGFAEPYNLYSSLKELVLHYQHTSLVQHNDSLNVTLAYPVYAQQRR
One may read the IC50 as the concentration that gives 50% inhibition. Low values mean greater potency in that assay, high ones weaker potency in that assay. On to `Cn1c(C(=O)NCC2(O)CC2)nc2c(N3CCC(n4c(=O)[nH]c5ccccc54)CC3)ncnc21` [Compound 12, N-[(1-hydroxycyclopropyl)methyl]-9-methyl-6-[4-(2-oxo-2,3-dihydro-1H-benzimidazol-1-yl)piperidin-1-yl]-9H-purine-8-carboxamide], for which the IC50 was 50 to 250 nM.

`CC(C)CNC(=O)c1nc2c(N3CCC4(CC3)C(=O)Nc3ccccc34)ncnc2n1C` [Compound 34, 9-methyl-N-(2-methylpropyl)-6-(2-oxo-1,2-dihydro-1′H-spiro[indole-3,4′-piperidin]-1′-yl)-9H-purine-8-carboxamide] had an IC50 of less than 50 nM.

In the case of `CC(NC(=O)c1nc2c(N3CCC(n4c(=O)[nH]c5ccccc54)CC3)ncnc2n1C)c1ccccc1` (stereo not shown) [Compound 53, 9-methyl-6-[4-(2-oxo-2,3-dihydro-1H-benzimidazol-1-yl)piperidin-1-yl]-N-(1-phenylethyl)-9H-purine-8-carboxamide], the IC50 is 500 to 1500 nM.

`Cn1c(-c2ccoc2)nc2c(N3CCC(n4c(=O)[nH]c5ccccc54)CC3)ncnc21` [Compound 265, 1-[1-(8-furan-3-yl-9-methyl-9H-purin-6-yl)piperidin-4-yl]-1,3-dihydro-2H-benzimidazol-2-one] showed an IC50 of 50 to 250 nM.

For `CCn1cc(-c2nc3c(N4CCC(n5c(=O)[nH]c6ccccc65)CC4)ncnc3n2CC)cn1` [Compound 244, 1-{1-[9-ethyl-8-(1-ethyl-1H-pyrazol-4-yl)-9H-purin-6-yl]piperidin-4-yl}-1,3-dihydro-2H-benzimidazol-2-one], the IC50 was less than 50 nM.

On to `Cn1c(C(=O)NCC(F)(F)F)nc2c(N3CCC(n4c(=O)[nH]c5ncccc54)CC3)ncnc21` [Compound 319, 9-methyl-6-[4-(2-oxo-2,3-dihydro-1H-imidazo[4,5-b]pyridin-1-yl)piperidin-1-yl]-N-(2,2,2-trifluoroethyl)-9H-purine-8-carboxamide], for which the IC50 was less than 50 nM.

Consider `CCn1c(C(=O)NCC2(O)CC2)nc2c(N3CCC4(CC3)C(=O)Nc3ccccc34)ncnc21` [Compound 215, 9-ethyl-N-[(1-hydroxycyclopropyl)methyl]-6-(2-oxo-1,2-dihydro-1′H-spiro[indole-3,4′-piperidin]-1′-yl)-9H-purine-8-carboxamide], for which the IC50 was less than 50 nM.

`CCn1c(-c2ccc(C(F)(F)F)nc2)nc2c(N3CCC4(CC3)C(=O)Nc3ccccc34)ncnc21` [Compound 324, 1′-{9-ethyl-8-[6-(trifluoromethyl)pyridin-3-yl]-9H-purin-6-yl}spiro[indole-3,4′-piperidin]-2(1H)-one] gave an IC50 of less than 50 nM.

In the case of `Cn1c(C(=O)NCC(F)(F)F)nc2c(N3CCC4(CC3)C(=O)Nc3ccccc34)ncnc21` [Compound 30, 9-methyl-6-(2-oxo-1,2-dihydro-1′H-spiro[indole-3,4′-piperidin]-1′-yl)-N-(2,2,2-trifluoroethyl)-9H-purine-8-carboxamide], the IC50 is less than 50 nM.

`Cn1cc(-c2nc3c(N4CC[C@@H](n5c(=O)[nH]c6ccccc65)[C@H](C(=O)O)C4)ncnc3n2C)cn1` [Compound 347, (3R,4R)-1-[9-methyl-8-(1-methyl-1H-pyrazol-4-yl)-9H-purin-6-yl]-4-(2-oxo-2,3-dihydro-1H-benzimidazol-1-yl)piperidine-3-carboxylic acid] came in with an IC50 of 500 to 1500 nM.

In the case of `CCCn1cc(-c2nc3c(N4CCC5(CC4)C(=O)Nc4ccccc45)ncnc3n2C)cn1` [Compound 234, 1′-[9-methyl-8-(1-propyl-1H-pyrazol-4-yl)-9H-purin-6-yl]spiro[indole-3,4′-piperidin]-2(1H)-one], the IC50 was less than 50 nM.

`Cn1c(C(=O)NCC2CC2)nc2c(N3CCC(n4nnc5ccccc54)CC3)ncnc21` [Compound 143, 6-[4-(1H-1,2,3-benzotriazol-1-yl)piperidin-1-yl]-N-(cyclopropylmethyl)-9-methyl-9H-purine-8-carboxamide] registered an IC50 of 500 to 1500 nM.

With `Cn1c(C(=O)NCC2CC2)nc2c(N3CCC4(CC3)OC(=O)c3ccccc34)ncnc21` [Compound 138, N-(cyclopropylmethyl)-9-methyl-6-(3-oxo-1′H,3H-spiro[2-benzofuran-1,4′-piperidin]-1′-yl)-9H-purine-8-carboxamide], the IC50 lay within 500 to 1500 nM.

`Cn1c(C(=O)NCC2CC2)nc2c(N3CCC(n4ccc5ccccc54)CC3)ncnc21` [Compound 121, N-(cyclopropylmethyl)-6-[4-(1H-indol-1-yl)piperidin-1-yl]-9-methyl-9H-purine-8-carboxamide] displayed an IC50 of 500 to 1500 nM.

Consider `Cc1ccccc1CNC(=O)c1nc2c(N3CCC(n4c(=O)[nH]c5ccccc54)CC3)ncnc2n1C` [Compound 57, 9-methyl-N-[(2-methylphenyl)methyl]-6-[4-(2-oxo-2,3-dihydro-1H-benzimidazol-1-yl)piperidin-1-yl]-9H-purine-8-carboxamide], for which the IC50 was in the range of 250 to 500 nM.

`Cn1c(C(=O)N2CCC(F)(F)C2)nc2c(N3CCC(n4c(=O)[nH]c5ccccc54)CC3)ncnc21` [Compound 108, 1-(1-{8-[(3,3-difluoropyrrolidin-1-yl)carbonyl]-9-methyl-9H-purin-6-yl}piperidin-4-yl)-1,3-dihydro-2H-benzimidazol-2-one] displayed an IC50 of 50 to 250 nM.

In turn, `CCn1cc(-c2nc3c(N4CCC(n5c(=O)[nH]c6ncccc65)CC4)ncnc3n2CC)cn1` [Compound 325, 1-{1-[9-ethyl-8-(1-ethyl-1H-pyrazol-4-yl)-9H-purin-6-yl]piperidin-4-yl}-1,3-dihydro-2H-imidazo[4,5-b]pyridin-2-one] came in with an IC50 of less than 50 nM.

`Cn1c(C(=O)NCC2CC2)nc2c(N3CC[C@H](c4ccccc4)[C@@H](O)C3)ncnc21` [Compound 235, N-(cyclopropylmethyl)-6-[(3R,4R)-3-hydroxy-4-phenylpiperidin-1-yl]-9-methyl-9H-purine-8-carboxamide] gave an IC50 of 500 to 1500 nM.

As to `CCn1c(-c2nnc(C(C)C)o2)nc2c(N3CCC4(CC3)C(=O)Nc3ccccc34)ncnc21` [Compound 209, 1′-{9-ethyl-8-[5-(1-methylethyl)-1,3,4-oxadiazol-2-yl]-9H-purin-6-yl}spiro[indole-3,4′-piperidin]-2(1H)-one], the IC50 is less than 50 nM.

The compound `Cn1c(C(=O)NCC2CC2)nc2c(N3CC(n4c(=O)[nH]c5ccccc54)C3)ncnc21` [Compound 137, N-(cyclopropylmethyl)-9-methyl-6-[3-(2-oxo-2,3-dihydro-1H-benzimidazol-1-yl)azetidin-1-yl]-9H-purine-8-carboxamide] came in with an IC50 of 50 to 250 nM.

Compound `Cn1c(-n2ccnc2)nc2c(N3CCC(n4c(=O)[nH]c5ccccc54)CC3)ncnc21` [Compound 124, 1-{1-[8-(1H-Imidazol-1-yl)-9-methyl-9H-purin-6-yl]piperidin-4-yl}-1,3-dihydro-2H-benzimidazol-2-one] displayed an IC50 of 50 to 250 nM.

`Cn1cc(-c2nc3c(N4CCN(c5cccc(OCC(=O)NC6CCCCC6)c5)CC4)ncnc3n2C)cn1` [Compound 358, N-cyclohexyl-2-[(3-{4-[9-methyl-8-(1-methyl-1H-pyrazol-4-yl)-9H-purin-6-yl]piperazin-1-yl}phenyl)oxy]acetamide] registered an IC50 of 500 to 1500 nM.

The compound `COC(=O)C1(c2ccccc2)CCN(c2ncnc3c2nc(-c2cnn(C)c2)n3C)CC1` [Compound 274, methyl 1-[9-methyl-8-(1-methyl-1H-pyrazol-4-yl)-9H-purin-6-yl]-4-phenylpiperidine-4-carboxylate] yielded an IC50 of 500 to 1500 nM.

For the compound `Cn1c(C(=O)NCC2CC2)nc2c(N3CCC4(CC3)C(=O)Oc3ccccc34)ncnc21` [Compound 129, N-(cyclopropylmethyl)-9-methyl-6-(2-oxo-1′H-spiro[1-benzofuran-3,4′-piperidin]-1′-yl)-9H-purine-8-carboxamide], the IC50 is 250 to 500 nM.

For the compound `CCn1c(C(=O)NC(C)C)nc2c(N3CCC4(CC3)C(=O)Nc3ccccc34)ncnc21` [Compound 223, 9-ethyl-N-(1-methylethyl)-6-(2-oxo-1,2-dihydro-1′H-spiro[indole-3,4′-piperidin]-1′-yl)-9H-purine-8-carboxamide], the IC50 was less than 50 nM.

`Cc1[nH]ncc1-c1nc2c(N3CCC4(CC3)C(=O)Nc3ccccc34)ncnc2n1C` [Compound 247, 1′-[9-methyl-8-(5-methyl-1H-pyrazol-4-yl)-9H-purin-6-yl]spiro[indole-3,4′-piperidin]-2(1H)-one] returned an IC50 of less than 50 nM.

`Cc1ncc(-c2nc3c(N4CCC(n5c(=O)[nH]c6ccccc65)CC4)ncnc3n2C)cn1` [Compound 340, 1-{1-[9-methyl-8-(2-methylpyrimidin-5-yl)-9H-purin-6-yl]piperidin-4-yl}-1,3-dihydro-2H-benzimidazol-2-one] returned an IC50 of less than 50 nM.

`Cn1c(-n2cnc(C(F)(F)F)c2)nc2c(N3CCC(n4c(=O)[nH]c5ccccc54)CC3)ncnc21` [Compound 165, 1-(1-{9-methyl-8-[4-(trifluoromethyl)-1H-imidazol-1-yl]-9H-purin-6-yl}piperidin-4-yl)-1,3-dihydro-2H-benzimidazol-2-one] yielded an IC50 of 50 to 250 nM.

As to `CCn1c(C(=O)N2CC(F)(F)C2)nc2c(N3CCC(n4c(=O)[nH]c5ccccc54)CC3)ncnc21` [Compound 189, 1-(1-{8[(3,3-difluoroazetidin-1-yl)carbonyl]-9-ethyl-9H-purin-6-yl}piperidin-4-yl)-1,3-dihydro-2H-benzimidazol-2-one], the half-inhibitory concentration (IC50) is less than 50 nM.

As to `Cn1c(C(=O)NCC2CC2)nc2c(N3CCC(N4C(=O)NCc5ccccc54)CC3)ncnc21` [Compound 248, N-(cyclopropylmethyl)-9-methyl-6-[4-(2-oxo-3,4-dihydroquinazolin-1(2H)-yl)piperidin-1-yl]-9H-purine-8-carboxamide], the IC50 is 250 to 500 nM.

`Cn1c(C(=O)NC2CCC(F)(F)CC2)nc2c(N3CCC4(CC3)C(=O)Nc3ccccc34)ncnc21` [Compound 105, N-(4,4-difluorocyclohexyl)-9-methyl-6-(2-oxo-1,2-dihydro-1′H-spiro[indole-3,4′-piperidin]-1′-yl)-9H-purine-8-carboxamide] came in with an IC50 of 50 to 250 nM.

(Values after patent US20140058103A1, “Inhibitors of PI3K-Delta and Methods of Their Use and Manufacture” (Exelixis, Inc., priority 2010, published 2014).)
